Laboratory results from the OPERA property sets (Mansouri et al. 2018).

| SMILES | logP |
| --- | --- |
| COc1cccc(OC(C)=O)c1 | 1.61 |
| CC(=O)Oc1c(C)cccc1C | 2.32 |
| O=C(O)c1c(F)cccc1F | 1.59 |
| Cc1cccc(C)c1C(=O)O | 2.21 |
| Cc1cccc(Cl)c1O | 2.8 |
| CSc1ccccc1C(N)=O | 0.71 |
| NC(=O)c1ccccc1[N+](=O)[O-] | -0.12 |
| N#Cc1ccccc1C(N)=O | 0 |
| CCc1cccc(CC)c1OC(C)=O | 3.4 |
| Oc1c(Br)cccc1Br | 3.36 |
| O=C(O)c1c(Cl)cccc1[N+](=O)[O-] | 1.56 |
| Oc1c(F)cccc1F | 1.96 |
| Cc1cccc(Cl)c1C(=O)O | 2.31 |
| CCc1cccc(CC)c1O | 3.03 |
| Cc1nc(N)sc1C(=O)CCN(C)C | 1.47 |
| CCOc1cccc(OC(C)=O)c1 | 2.08 |
| CC(=O)Oc1c(Cl)cccc1Cl | 2.94 |

The next lines start with the values.

| logP | SMILES |
| --- | --- |
| 1.82 | COC(=O)c1ccccc1F |
| 2.95 | COC(=O)c1ccc(Br)cc1 |
| 2.04 | COC(=O)c1ccccc1OC |
| 2.79 | COC(=O)c1c(Cl)cccc1Cl |
| 2.28 | COC(=O)c1ccc(F)cc1 |
| 2.7 | COC(=O)c1ccc(C)cc1 |
| 2.21 | COC(=O)c1c(Cl)cccc1[N+](=O)[O-] |
| 2.42 | COC(=O)c1c(F)cccc1Cl |
| 1.89 | COC(=O)c1cccc([N+](=O)[O-])c1 |
| 2.85 | COC(=O)c1cccc(Cl)c1 |
| 2.77 | COC(=O)c1cccc(C)c1 |
| 1.66 | COC(=O)c1ccccc1[N+](=O)[O-] |
| 2.74 | COC(=O)c1ccccc1I |
| 2.45 | CCc1cccc(OC(C)=O)c1 |
| 2.55 | COC(=O)c1c(C)cccc1C |
| 1.96 | COC(=O)c1c(F)cccc1F |
| 1.89 | COC(=O)c1ccc([N+](=O)[O-])cc1 |
